“Also recorded” adds a separate entry of the source. Each block holds one substance with its values, some of them ahead of it. Ends that are not written are not given here. * marks the point of attachment. Meth = methacrylated, methacrylate group attached (2-isocyanatoethyl methacrylate used), C=C(C)C(=O)OCCNC(=O)*
Columns and labels:
[1] = test system: VLA-6 (α6) and αvβ3 integrin subunits; settings: cited from earlier work
[2] = test system: hiPSC-CMs; test: hiPSC-CM adhesion on RGD peptide-functionalized PEG hydrogel microarray; assay type: cell-based, human; settings: 15 mM peptide, 3 days culture, 18 replicates
Protocol: (§1) PEGDA and methacrylated peptides were mixed at one fixed peptide concentration (15 mM) to prepare microarrayed hydrogels with a constant peptide concentration. hiPSC-CMs (human induced pluripotent stem cell-derived cardiomyocytes from Cellular Dynamics International, Madison, Wis., USA) were seeded onto the microarray and cultured for 3 days to facilitate the formation of sarcomere structures. hiPSC-CMs were stained with DAPI to approximate cell number and phalloidin for F-actin to estimate cell spreading. Sarcomere structure was examined by using immunofluorescence microscopy.
hiPSC-derived cardiomyocytes (iCell Cardiomyocytes, Cellular Dynamics International, Madison, Wis., USA) were cultured according to the manufacturer's protocol. Briefly, hiPSC-derived cardiomyocytes were plated on 0.1% gelatin coated 6-well plates in iCell Cardiomyocytes Plating Medium (Cellular Dynamics International) at a density of about 3×10^5 to 4.0×10^5 cells/well and incubated at 37° C. in 5% CO2 for 4 days. Two days after plating, the plating medium was removed and replaced with 4 mL of iCell Cardiomyocytes Maintenance Medium (Cellular Dynamics International). After 4 days of monolayer pre-culture, cells were detached using trypLE Express (Gibco Life Technologies, Grand Island, N.Y.) and seeded along with culture media on the hydrogel microarrays. […] Sarcomere structures were visualized using sarcomere actinin and troponin-I staining as described above.

[3] = test system: hADSCs; test: hADSC adhesion on peptide-functionalized PEGDA-700 hydrogel microarray (peptide function validation, glycine linker length); assay type: cell-based, human; settings: for adhesion of hADSCs on peptide-functionalized PEGDA-700 hydrogels: 15 mM peptide; for saturation number of attached hADSCs relative to MethRGDSP and MethG2RGDSP: saturated (maximum) number of attached cells, peptide 0.5-15 mM, 12 hours
Protocol: PEGDA and methacrylated peptides were mixed at varied peptide concentrations (i.e., 0.5, 1, 3, 6, 9, 12 and 15 mM) to prepare microarrayed hydrogels with different peptide concentrations. hADSCs were seeded onto the array and cultured for 12 hours.
All experiments were conducted using passage 5 (P5) hADSCs.

[4] = test system: hiPSC-CMs; test: Sarcomere formation / alpha sarcomeric actinin expression of hiPSC-CMs on hydrogel microarray; assay type: cell-based, human; settings: 15 mM peptide, 3 days culture
Protocol: as §1
Briefly, hiPSC-CMs on the microarray were fixed with 4% PFA solution and blocked by 10% goat serum. […] Z-stacked Images collected from the microarray were analyzed by using the ImageJ (National Institutes of Health) for semi-quantitative analysis of the expression level of alpha sarcomeric actinin of hiPSC-CMs on the microarrays. The sarcomeric actinin expression level of hiPSC-CMs on each hydrogel spot was determined by the total fluorescence intensities of sarcomeric actinin staining divided by the total cell number on the hydrogel spot, which was then normalized to the blank PEG-700 hydrogel spots. […]

[5] = test system: HUVECs; test: HUVEC culture in 3D peptide-functionalized alginate hydrogels (spreading, proliferation, network formation); assay type: cell-based, human; settings: 1% alginate, 10% (w/w) peptide, 6 million HUVECs/ml, 2 days culture
Protocol: The Ca2+ containing substrates for alginate crosslinking was prepared as the previous literature mentioned. Alginate modified with these peptides (RGDS (SEQ ID NO:35), RGDSP (SEQ ID NO:33) and α1-peptide, respectively) was dissolved into HUVECs culturing media to prepare 1% alginate solution. […] mixture of the alginate and HUVECs was transferred into each well in 96 well plates (3 replicates for each peptide). The alginate was left gelling for 40 min. Then the well plates were transferred into incubator for 10 min to melt the Ca2+ containing substrates. After Ca2+ containing substrates get removed, HUVEC culturing media was added into each well and continue culture for additional two days. Media were changed every day. The cells were then fixed and stained with DAPI for cell number counting and phalloidin for F-actin to estimate cell spreading at day 0 and day 2. The fluorescent pictures were taken by a Leica TCS SP5 AOBS confocal microscope system. The total tubule length and the proliferation rates were measured.

[6] = test system: VLA-6 and αvβ3 integrin; test: Integrin antibody blocking of HUVEC adhesion on alginate surface, anti VLA-6 + anti-integrin αvβ3; assay type: cell-based, human; settings: for decrease in HUVEC adhesion when both VLA-6 and αvβ3 integrin are blocked: 2D peptide-functionalized alginate, both antibodies, 6 hours; for integrin binding concluded from blocking experiments: HUVECs on peptide-functionalized alginates
Protocol: (§2) The integrin antibodies and their combinations (no antibody, anti VLA-6 only, anti-integrin αvβ3 only and anti VLA-6+ anti-integrin αvβ3,) were aliquot into predesigned ratio (final ratios in the mixture: 1:20 for anti VLA-6, 1:100 for anti-integrin αvβ3) with PBS, respectively. The HUVECs were incubated with these antibodies for 15 min, sedimented by low speed centrifugation, suspended in 100 μl of serum-free MEM plus 0.02% BSA and then added into the 1% alginate gel coated wells. The wells were transferred into incubator for 6 hours. After that, unattached cells were rinsed from the wells and the attached cells were then fixed and stained with DAPI for cell number counting and phalloidin for F-actin.

[7] = biological target: T1, αvβ3 integrin (Homo sapiens, UniProt P05106+P06756); test: Integrin antibody blocking of HUVEC adhesion on alginate surface, anti-integrin αvβ3; assay type: cell-based; settings: 2D peptide-functionalized alginate, anti-integrin αvβ3 1:100, 6 hours
T1 construct: endogenous in cells; host or cells: HUVEC
T1 sequence (P06756 31-889 limits assumed): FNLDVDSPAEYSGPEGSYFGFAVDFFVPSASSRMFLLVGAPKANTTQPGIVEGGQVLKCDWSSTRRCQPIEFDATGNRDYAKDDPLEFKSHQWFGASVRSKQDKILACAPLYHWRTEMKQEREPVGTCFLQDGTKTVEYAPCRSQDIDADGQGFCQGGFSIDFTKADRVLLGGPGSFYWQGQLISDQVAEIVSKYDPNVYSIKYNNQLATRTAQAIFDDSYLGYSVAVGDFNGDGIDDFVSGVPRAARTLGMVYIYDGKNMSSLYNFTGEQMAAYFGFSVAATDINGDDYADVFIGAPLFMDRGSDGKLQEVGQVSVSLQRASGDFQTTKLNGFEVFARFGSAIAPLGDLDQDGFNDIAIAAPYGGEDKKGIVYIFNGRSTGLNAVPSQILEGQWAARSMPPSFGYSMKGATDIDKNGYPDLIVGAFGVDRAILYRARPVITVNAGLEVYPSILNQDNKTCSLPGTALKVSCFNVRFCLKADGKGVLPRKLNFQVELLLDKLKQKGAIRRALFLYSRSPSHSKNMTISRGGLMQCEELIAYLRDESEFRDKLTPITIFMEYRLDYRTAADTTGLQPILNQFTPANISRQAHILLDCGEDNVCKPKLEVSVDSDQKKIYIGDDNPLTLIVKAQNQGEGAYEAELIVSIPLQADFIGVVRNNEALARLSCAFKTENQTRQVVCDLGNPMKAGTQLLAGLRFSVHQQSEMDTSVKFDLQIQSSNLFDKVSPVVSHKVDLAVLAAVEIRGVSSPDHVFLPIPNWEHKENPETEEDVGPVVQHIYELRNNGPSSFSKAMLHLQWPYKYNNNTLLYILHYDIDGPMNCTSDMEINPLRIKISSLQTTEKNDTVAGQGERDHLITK
T1 sequence (P06756 891-1048 partner limits assumed): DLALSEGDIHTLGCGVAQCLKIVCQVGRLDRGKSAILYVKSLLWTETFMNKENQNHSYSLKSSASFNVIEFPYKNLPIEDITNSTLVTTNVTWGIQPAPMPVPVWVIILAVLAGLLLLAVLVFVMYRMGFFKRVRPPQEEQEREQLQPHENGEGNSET
T1 sequence (P05106 27-788): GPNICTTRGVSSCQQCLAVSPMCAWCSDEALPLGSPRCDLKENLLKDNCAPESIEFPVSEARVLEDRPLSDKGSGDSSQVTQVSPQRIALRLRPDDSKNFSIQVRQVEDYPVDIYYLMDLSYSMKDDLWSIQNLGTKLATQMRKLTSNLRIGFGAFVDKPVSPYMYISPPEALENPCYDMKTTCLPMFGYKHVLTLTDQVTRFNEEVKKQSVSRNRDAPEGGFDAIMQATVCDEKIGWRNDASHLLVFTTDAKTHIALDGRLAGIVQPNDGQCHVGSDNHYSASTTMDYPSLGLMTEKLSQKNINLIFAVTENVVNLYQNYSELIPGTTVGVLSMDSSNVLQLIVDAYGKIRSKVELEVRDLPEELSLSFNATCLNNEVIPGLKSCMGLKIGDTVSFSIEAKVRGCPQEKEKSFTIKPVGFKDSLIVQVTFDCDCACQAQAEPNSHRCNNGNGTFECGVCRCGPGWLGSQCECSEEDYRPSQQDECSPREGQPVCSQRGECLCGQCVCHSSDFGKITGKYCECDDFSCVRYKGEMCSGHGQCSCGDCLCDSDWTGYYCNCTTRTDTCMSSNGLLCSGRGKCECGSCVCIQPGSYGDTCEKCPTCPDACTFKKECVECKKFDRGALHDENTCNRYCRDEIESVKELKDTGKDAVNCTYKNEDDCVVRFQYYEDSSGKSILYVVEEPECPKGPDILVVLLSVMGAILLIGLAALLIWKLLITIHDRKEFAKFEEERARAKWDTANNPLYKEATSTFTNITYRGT
Protocol: as §2

[8] = biological target: T2, VLA-6 integrin (Homo sapiens, UniProt P05556+P23229); test: Integrin antibody blocking of HUVEC adhesion on alginate surface, anti VLA-6; assay type: cell-based; settings: 2D peptide-functionalized alginate, anti VLA-6 1:20, 6 hours
T2 construct: endogenous in cells; host or cells: HUVEC
T2 sequence (P23229 24-938 limits assumed): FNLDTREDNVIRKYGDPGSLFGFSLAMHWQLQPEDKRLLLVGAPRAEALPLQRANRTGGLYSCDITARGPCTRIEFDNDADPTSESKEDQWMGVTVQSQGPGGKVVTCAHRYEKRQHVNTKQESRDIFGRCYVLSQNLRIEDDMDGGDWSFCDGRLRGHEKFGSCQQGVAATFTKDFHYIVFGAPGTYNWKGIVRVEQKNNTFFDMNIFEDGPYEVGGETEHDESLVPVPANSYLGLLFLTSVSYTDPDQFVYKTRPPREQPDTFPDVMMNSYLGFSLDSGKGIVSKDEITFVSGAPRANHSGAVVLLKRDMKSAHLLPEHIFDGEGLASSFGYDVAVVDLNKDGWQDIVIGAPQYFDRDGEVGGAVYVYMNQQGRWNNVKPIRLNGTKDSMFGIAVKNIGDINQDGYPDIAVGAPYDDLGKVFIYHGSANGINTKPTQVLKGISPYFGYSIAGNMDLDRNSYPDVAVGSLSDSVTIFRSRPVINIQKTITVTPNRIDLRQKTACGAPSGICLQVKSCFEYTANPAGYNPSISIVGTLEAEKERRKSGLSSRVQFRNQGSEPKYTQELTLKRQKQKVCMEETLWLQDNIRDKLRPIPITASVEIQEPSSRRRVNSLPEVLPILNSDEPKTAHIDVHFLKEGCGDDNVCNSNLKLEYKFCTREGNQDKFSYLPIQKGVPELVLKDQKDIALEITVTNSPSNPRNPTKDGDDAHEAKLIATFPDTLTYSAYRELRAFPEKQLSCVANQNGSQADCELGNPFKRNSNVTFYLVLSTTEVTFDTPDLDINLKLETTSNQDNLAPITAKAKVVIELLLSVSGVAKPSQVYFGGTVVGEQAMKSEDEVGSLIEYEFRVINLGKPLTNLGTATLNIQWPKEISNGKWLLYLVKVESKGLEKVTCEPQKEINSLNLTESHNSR
T2 sequence (P23229 942-1130 partner limits assumed): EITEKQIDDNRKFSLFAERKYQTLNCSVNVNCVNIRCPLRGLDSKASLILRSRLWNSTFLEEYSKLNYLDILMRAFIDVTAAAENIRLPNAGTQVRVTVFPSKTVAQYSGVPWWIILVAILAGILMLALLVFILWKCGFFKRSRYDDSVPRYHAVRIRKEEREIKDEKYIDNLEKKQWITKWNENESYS
T2 sequence (P05556 21-798): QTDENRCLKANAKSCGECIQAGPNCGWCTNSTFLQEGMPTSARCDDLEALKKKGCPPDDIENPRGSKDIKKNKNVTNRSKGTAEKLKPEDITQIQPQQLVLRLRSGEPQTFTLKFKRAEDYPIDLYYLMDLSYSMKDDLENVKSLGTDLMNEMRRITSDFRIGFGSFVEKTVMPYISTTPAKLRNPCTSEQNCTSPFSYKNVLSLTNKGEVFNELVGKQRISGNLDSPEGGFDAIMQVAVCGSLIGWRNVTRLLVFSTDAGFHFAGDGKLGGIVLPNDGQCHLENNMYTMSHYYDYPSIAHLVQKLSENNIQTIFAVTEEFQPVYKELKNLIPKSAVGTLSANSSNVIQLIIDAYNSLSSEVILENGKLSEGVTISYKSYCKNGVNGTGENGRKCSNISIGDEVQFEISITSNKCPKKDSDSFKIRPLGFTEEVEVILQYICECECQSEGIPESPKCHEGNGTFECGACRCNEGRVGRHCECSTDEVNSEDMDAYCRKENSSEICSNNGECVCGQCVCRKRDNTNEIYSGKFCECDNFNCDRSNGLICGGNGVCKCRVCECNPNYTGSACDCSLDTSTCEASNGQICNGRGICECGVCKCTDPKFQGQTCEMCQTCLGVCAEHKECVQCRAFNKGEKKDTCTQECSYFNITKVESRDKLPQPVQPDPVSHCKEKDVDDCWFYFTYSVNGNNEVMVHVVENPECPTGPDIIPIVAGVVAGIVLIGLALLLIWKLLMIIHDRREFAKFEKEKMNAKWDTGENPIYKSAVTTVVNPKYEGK
Protocol: as §2

[9] = test system: HUVECs (EC integrin); test: HUVEC adhesion on RGD peptide-functionalized PEG hydrogel microarray; assay type: cell-based, human; settings: for affinity to HUVECs / HUVEC adhesion on PEG hydrogel microarray: 12 hours culture
Protocol: Methacrylated peptides (shown in FIG. 7) were dissolved in DMF at pre-designated ratios (1 mM, 3 mM, 6 mM, 9 mM, 12 mM, 15 mM and 20 mM) and mixed with PEGDA (containing 1% DMPA as initiator) (DMF solution of methacrylated peptide: PEGDA=1:1 (v/v)) and then transferred into a 384 well plate for microarray fabrication. The microarrays were printed in a humid Ar-atmosphere on epoxy monolayer-coated glass slides (Xenopore XENOSLIDE E, Hawthorne, N.J.) which were first dip-coated in 4 v/v % poly(hydroxyethyl methacrylate) (i.e., poly(HEMA)) using a customized microarrayer (Biodot). Spots were polymerized via 10 s exposure to long wave UV (365 nm), dried at <50 mtorr for at least 7 days. Before use, the chips were sterilized by UV for 30 min for each side, and then washed with PBS twice for 15 min to remove residual monomer or solvent. HUVECs (human umbilical vein endothelial cells from Lonza, Basel, Switzerland) were seeded onto the array and cultured for 12 hours. They were then fixed and stained with DAPI for cell number counting and phalloidin for F-actin to estimate cell spreading for the lead peptide identification.

[10] = test system: KDR (VEGFR2); test: RT-PCR of VEGFR2 mRNA in HUVECs in 3D peptide-modified alginate gel; assay type: cell-based, human; settings: HUVECs in 3D peptide-functionalized alginate hydrogels, 6 hours culture
Protocol: Before PCR experiments, HUVECs were seeded in three different peptides (RGDS (SEQ ID NO:35), RGDSP (SEQ ID NO:33) and α1-peptide, respectively) modified 1% alginate gel. The cells were cultured for 6 hrs and then harvest for RNA isolation. Total RNA was isolated according to the kit and protocol of an RNeasy Micro Kit (Qiagen, Vinlo, Netherlands) with the addition of the QIAShredder (Qiagen) during the homogenization step for HUVECs. For each group, around 0.1 million cells were used for RNA isolation. At least 25 ng of total RNA for each group was used for cDNA synthesis by the Bio-Rad (Hercules, USA) iScript cDNA synthesis kit. qRT-PCR was executed with “best coverage” validated Taqman primers (Life Technologies, Carlsbad, USA) in 10 μl reactions for the following genes: KDR (VEGFR2), ACTB, GAPDH. qRT-PCR Data was normalized as the change in cycle threshold (dCt) from the geometric mean of ACTB and GAPDH expression. Expression was analyzed using mRNA expression=2^(−(dCt)) and then normalized to the gene expression from RGDS (SEQ ID NO:35) samples.

[11] = test system: HUVECs; test: HUVEC adhesion on 2D surface of peptide-modified alginate hydrogel; assay type: cell-based, human; settings: 10% (w/w) peptide, 1% alginate, versus RGDS
Protocol: The peptides were conjugated onto the oxidized alginate by the EDC-NHS chemistry as reported by Rowley: using aqueous carbodiimide reacted with peptides (RGDS (SEQ ID NO:35), RGDSP (SEQ ID NO:33) and α1-peptide) onto the oxidized alginate. In order to secure sufficient cell attachment, 10% (w/w) peptide modification was performed into the alginate hydrogel.
The Ca2+ containing substrates for alginate crosslinking was prepared according to the literature. 50 μl, 1% alginate modified with peptides (RGDS (SEQ ID NO:35), RGDSP (SEQ ID NO:33) and α1-peptide, respectively) aqueous solution was transferred into each well in 96 well plates (3 replicates for each peptide). The alginate was left gelling for 40 min. Then the well plates were transferred into incubator for 10 min to melt the Ca2+ containing substrates. After Ca2+ containing substrates get removed, HUVECs were seeded onto the hydrogel layers and cultured for 12 hours. Then they were fixed and stained with DAPI for cell number counting and phalloidin for F-actin to estimate cell spreading.

Substance: CQAGTFALRGDNPQG [A99, similar Ln derived peptide]
integrin binding reported for A99 [1]: bind to both VLA-6 (α6) and αvβ3 integrin subunits

Substance: DAVKQLQAAERGDA [derived from Laminin subunit α4]
hiPSC-CM adhesion / affinity to hiPSC-CMs [2]: substantial activities to support hiPSC-CM adhesion

Substance: G4RDGSP: methacrylated scrambled sequence of G4RGDSP (Meth-GGGGRDGSP) [reference compound]
adhesion of hADSCs on peptide-functionalized PEGDA-700 hydrogels [3]: no cell adhesion

Substance: MethG4RGDSP: methacrylated-RGDSP-peptide with 4 glycine linker (Meth-GGGGRGDSP)
adhesion of hADSCs on peptide-functionalized PEGDA-700 hydrogels [3]: effectively promote adhesion of hADSCs
saturation number of attached hADSCs relative to MethRGDSP and MethG2RGDSP [3]: about one-fold higher

Substance: MethG6RGDSP: methacrylated-RGDSP-peptide with 6 glycine linker (Meth-GGGGGGRGDSP)
saturation number of attached hADSCs relative to MethRGDSP and MethG2RGDSP [3]: about one-fold higher

Substance: PMQKMRGDVFSP [derived from Laminin subunit β4]
hiPSC-CM adhesion / affinity to hiPSC-CMs [2]: greatest ability to promote hiPSC-CM adhesion; also recorded: substantial activities to support hiPSC-CM adhesion; also recorded: highest affinity to hiPSC-CMs
sarcomere formation / sarcomeric actinin expression of hiPSC-CMs [4]: greatest ability to promote hiPSC-CM adhesion and sarcomere formation; also recorded: most developed sarcomere structures
sarcomere formation / sarcomeric actinin expression of hiPSC-CMs ([4]; listed as RGD (SEQ ID NO:36) peptide from laminin β4 subunit): highest sarcomeric actinin expression

Substance: PQVTRGDVFTMP [RGD peptide from vitronectin, included as a control, reference compound]
hiPSC-CM adhesion / affinity to hiPSC-CMs [2]: moderate cell adhesion

integrin binding concluded from blocking experiments [6]: bind to αvβ3 integrin
decrease in HUVEC adhesion when αvβ3 integrin is blocked [7]: ~35%
Substance: RGDS [RGD peptide derived from Fn]
HUVEC spreading, proliferation and network formation in 3D alginate hydrogel [5]: limited cell spreading and no visible network formation
decrease in HUVEC adhesion when both VLA-6 and αvβ3 integrin are blocked [6]: ~35%
decrease in HUVEC adhesion when VLA-6 integrin is blocked [8]: does not significantly affect cell adhesion

integrin binding concluded from blocking experiments [6]: bind to αvβ3 integrin
Substance: RGDSP [RGD peptide derived from Fn]
HUVEC spreading, proliferation and network formation in 3D alginate hydrogel [5]: limited cell spreading and no visible network formation
affinity to HUVECs / HUVEC adhesion on PEG hydrogel microarray [9]: significantly higher affinity to HUVECs than RGDS
mRNA expression of VEGFR2 [10]: significant higher amount of VEGFR2 mRNA expression
decrease in HUVEC adhesion when VLA-6 integrin is blocked [8]: does not significantly affect cell adhesion

Substance: SETQRGDVFVP [RGD peptide of the 12-peptide library, reference compound]
hiPSC-CM adhesion / affinity to hiPSC-CMs [2]: moderate cell adhesion

integrin binding concluded from blocking experiments [6]: binds to both VLA-6 and αvβ3 integrin
Substance: TFALRGDNP [α1 peptide, RGD peptide derived from Ln α1 subunit]
HUVEC spreading, proliferation and network formation in 3D alginate hydrogel [5]: significantly enhanced cell proliferation and network formation
decrease in HUVEC adhesion when both VLA-6 and αvβ3 integrin are blocked [6]: ~70%
affinity to HUVECs / HUVEC adhesion on PEG hydrogel microarray [9]: highest activities to promote HUVEC adhesion
saturated number of attached HUVECs, higher than RGDS ([9]; PEG hydrogel microarray, versus RGDS): ~500%
saturated number of attached HUVECs, higher than RGDSP ([9]; PEG hydrogel microarray, versus RGDSP): ~200%
number of HUVECs attached to 2D surface of alginate hydrogel, higher than RGDS [11]: ~150%
mRNA expression of VEGFR2 [10]: significantly up-regulated

Source: US11150251B2, “Bi-functional arginine-glycine-aspartic acid (RGD) peptides and methods to promote angiogenesis” (Clemson University Research Foundation, priority 2016, dated 2021)
